Laboratory results reported in patent US8163536B2, “Device for preparing an undifferentiated cell from a more committed cell” (Tristem Trading (Cyprus) Limited, priority 2000, dated 2012).

Columns and labels:
displaced cells = conditions: pre-determined period, then calcium containing medium containing cortisone
From the text: The erythroid progenitors can be cultured and expanded for long periods of time and may be used in the treatment red blood disorder and red blood shortages.

[1] = tested on: enriched, purified, normal B lymphocytes; experiment: Flow cytometry of enriched, purified, normal B lymphocytes treated with one of three agents (FIG. 20); format: cell-based, human; conditions: compared with the negative control
Procedure: Initial studies actually identified three agents—granulocyte/monocyte-colony stimulating factor (GM-CSF), erythropoietin and mAb CR3/43. A preparation of enriched, purified, normal B lymphocytes was treated in a device according to the present invention with one of these three agents in a similar manner to that described for CR3/43 and TAL.1B5 above and treated samples examined by flow cytometry as described above. […] In particular, all three agents increased the relative number of CD34^+ cells in the cell population (see FIG. 20).

Molecule | retrodifferentiation of more committed cells (displaced cells) | relative number of CD34+ cells in the cell population (FIG. 20) [1]
O=C(O)CN(CCN(CC(=O)O)CC(=O)O)CC(=O)O [EDTA] | caused more committed cells to retrodifferentiate into undifferentiated cells | 
GM-CSF: granulocyte/monocyte-colony stimulating factor, haematopoietic growth factor |  | increased
